# From the supplement of paper PMC10307832
# Compound: COc1nc(N)nc2c1ncn2[C@@H]1O[C@H](CO)[C@@H](O)[C@@H]1O [Nelarabine] + O=C(c1cc(Cc2n[nH]c(=O)c3ccccc23)ccc1F)N1CCN(C(=O)C2CC2)CC1 [Olaparib] (partner 8 µM)
# Assay: relative viability (nuclei count vs DMSO), 5 days (fraction); higher = more cells survive
# Settings: first compound 0.01 µM
# Procedure, shortened: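 Lung cancer cell lines were pin-tool dosed in 1536-well plates on the day after seeding, with either a lone drug or a fixed anchor-drug dose plus five library-drug doses (not always all listed) in √10 steps. Nuclei were counted on 4× images after 5 days. Relative viability is the ratio of treated-well to vehicle-well nuclei counts, with each value a median of duplicate plates.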
row,Cell Line,relative viability
1,201T,0.876
2,A549,0.379
3,A-427,0.796
4,ABC-1,0.774
5,BEN,1.3
6,CAL-12T,0.662
7,COR-L23,0.432
8,COR-L 105,0.554
9,Calu-6,0.67
10,ChaGo-K-1,0.324
11,EBC-1,0.89
12,EKVX,1.11
13,EPLC-272H,1.13
14,H3255,0.624
15,HARA,0.843
16,HCC-15,0.813
17,HCC-44,1.07
18,HCC-78,1.01
19,HCC-366,0.33
20,HCC-827,0.673
21,HOP-62,0.479
22,IA-LM,0.932
23,LC-2-ad,0.748

row,Cell Line,relative viability
1,LCLC-103H,0.951
2,LK-2,0.689
3,LOU-NH91,0.997
4,LU99A,0.276
5,LXF-289,1.2
6,NCI-H23,0.32
7,NCI-H322M,0.79
8,NCI-H358,0.616
9,NCI-H441,0.5
10,NCI-H460,0.748
11,NCI-H520,0.29
12,NCI-H522,0.619
13,NCI-H596,0.654
14,NCI-H647,0.57
15,NCI-H650,0.525
16,NCI-H661,0.876
17,NCI-H727,0.697
18,NCI-H838,0.839
19,NCI-H1299,1
20,NCI-H1355,0.824
21,NCI-H1395,0.465
22,NCI-H1437,0.701
23,NCI-H1650,0.922

row,Cell Line,relative viability
1,NCI-H1651,0.183
2,NCI-H1666,0.681
3,NCI-H1703,0.547
4,NCI-H1734,0.688
5,NCI-H1755,0.878
6,NCI-H1792,0.52
7,NCI-H1793,1.36
8,NCI-H1915,0.25
9,NCI-H1944,0.486
10,NCI-H1975,1.04
11,NCI-H1993,1.19
12,NCI-H2009,0.746
13,NCI-H2023,0.597
14,NCI-H2085,0.815
15,NCI-H2087,0.713
16,NCI-H2126,1.05
17,NCI-H2170,0.708
18,NCI-H2228,0.664
19,NCI-H2342,0.442
20,NCI-H2347,0.658
21,NCI-H2405,0.948
22,NCI-H3122,0.668

# Same assay, conditions: first compound 0.03162 µM
row,Cell Line,relative viability
1,201T,0.835
2,A549,0.363
3,A-427,0.818
4,ABC-1,0.706
5,BEN,1.08
6,CAL-12T,0.87
7,COR-L23,0.31
8,COR-L 105,0.666
9,Calu-6,0.65
10,ChaGo-K-1,0.404
11,EBC-1,0.911
12,EKVX,0.852
13,EPLC-272H,0.881
14,H3255,0.553
15,HARA,0.569
16,HCC-15,0.691
17,HCC-44,0.972
18,HCC-78,0.857
19,HCC-366,0.327
20,HCC-827,0.622
21,HOP-62,0.315
22,IA-LM,0.811
23,LC-2-ad,0.39

row,Cell Line,relative viability
1,LCLC-103H,0.754
2,LOU-NH91,0.922
3,LU99A,0.239
4,LXF-289,1.13
5,NCI-H23,0.235
6,NCI-H322M,0.75
7,NCI-H358,0.406
8,NCI-H441,0.518
9,NCI-H460,0.581
10,NCI-H520,0.29
11,NCI-H522,0.738
12,NCI-H596,0.708
13,NCI-H647,0.498
14,NCI-H650,0.369
15,NCI-H661,0.709
16,NCI-H727,0.559
17,NCI-H838,0.743
18,NCI-H1299,0.999
19,NCI-H1355,0.6
20,NCI-H1395,0.431
21,NCI-H1437,0.611
22,NCI-H1648,0.927
23,NCI-H1650,0.81

row,Cell Line,relative viability
1,NCI-H1651,0.195
2,NCI-H1666,0.638
3,NCI-H1703,0.293
4,NCI-H1734,0.597
5,NCI-H1755,0.966
6,NCI-H1792,0.42
7,NCI-H1915,0.264
8,NCI-H1944,0.436
9,NCI-H1975,0.942
10,NCI-H1993,0.993
11,NCI-H2009,0.607
12,NCI-H2023,0.497
13,NCI-H2085,0.768
14,NCI-H2087,0.421
15,NCI-H2126,0.981
16,NCI-H2170,0.561
17,NCI-H2228,0.574
18,NCI-H2342,0.432
19,NCI-H2347,0.417
20,NCI-H2405,0.834
21,NCI-H3122,0.607

# Same assay, conditions: first compound 0.1 µM
row,Cell Line,relative viability
1,201T,0.845
2,A549,0.401
3,A-427,0.812
4,ABC-1,0.777
5,BEN,1.11
6,CAL-12T,0.748
7,COR-L23,0.301
8,COR-L 105,0.592
9,Calu-6,0.698
10,ChaGo-K-1,0.452
11,EBC-1,0.707
12,EKVX,0.817
13,EPLC-272H,0.646
14,H3255,0.54
15,HARA,0.746
16,HCC-15,0.931
17,HCC-44,0.948
18,HCC-366,0.434
19,HCC-827,0.571
20,HOP-62,0.283
21,IA-LM,0.877
22,LC-2-ad,0.668
23,LCLC-97TM1,0.413

row,Cell Line,relative viability
1,LCLC-103H,0.838
2,LK-2,0.701
3,LOU-NH91,0.873
4,LU99A,0.252
5,LXF-289,1.01
6,NCI-H23,0.294
7,NCI-H322M,0.701
8,NCI-H358,0.587
9,NCI-H441,0.561
10,NCI-H460,0.479
11,NCI-H520,0.343
12,NCI-H522,0.651
13,NCI-H596,0.759
14,NCI-H647,0.633
15,NCI-H650,0.413
16,NCI-H661,0.762
17,NCI-H727,0.636
18,NCI-H838,0.849
19,NCI-H1299,0.989
20,NCI-H1355,0.684
21,NCI-H1395,0.403
22,NCI-H1437,0.656
23,NCI-H1650,1

row,Cell Line,relative viability
1,NCI-H1651,0.213
2,NCI-H1666,0.737
3,NCI-H1703,0.295
4,NCI-H1734,0.689
5,NCI-H1755,0.931
6,NCI-H1792,0.581
7,NCI-H1793,0.891
8,NCI-H1915,0.261
9,NCI-H1944,0.481
10,NCI-H1975,0.823
11,NCI-H1993,0.865
12,NCI-H2009,0.834
13,NCI-H2023,0.503
14,NCI-H2085,0.731
15,NCI-H2087,0.73
16,NCI-H2126,0.951
17,NCI-H2170,0.61
18,NCI-H2228,0.322
19,NCI-H2342,0.443
20,NCI-H2347,0.527
21,NCI-H2405,0.83

# Same assay, conditions: first compound 0.3162 µM
row,Cell Line,relative viability
1,201T,0.858
2,A549,0.452
3,A-427,0.803
4,ABC-1,0.903
5,BEN,1.04
6,CAL-12T,0.676
7,COR-L23,0.373
8,COR-L 105,0.697
9,Calu-6,0.575
10,ChaGo-K-1,0.433
11,EBC-1,0.676
12,EKVX,0.775
13,EPLC-272H,0.842
14,H3255,0.583
15,HARA,0.834
16,HCC-15,0.667
17,HCC-44,0.975
18,HCC-78,0.914
19,HCC-366,0.385
20,HCC-827,0.571
21,HOP-62,0.368
22,IA-LM,0.825
23,LC-2-ad,0.753
24,LCLC-97TM1,0.358

row,Cell Line,relative viability
1,LCLC-103H,0.762
2,LK-2,0.601
3,LOU-NH91,0.882
4,LU99A,0.249
5,LXF-289,1.04
6,NCI-H23,0.33
7,NCI-H322M,0.827
8,NCI-H358,0.637
9,NCI-H441,0.677
10,NCI-H460,0.552
11,NCI-H520,0.366
12,NCI-H522,0.592
13,NCI-H596,0.756
14,NCI-H647,0.541
15,NCI-H650,0.402
16,NCI-H661,0.748
17,NCI-H727,0.731
18,NCI-H838,0.89
19,NCI-H1299,1.02
20,NCI-H1355,0.766
21,NCI-H1395,0.464
22,NCI-H1437,0.695
23,NCI-H1648,0.889
24,NCI-H1650,0.883

row,Cell Line,relative viability
1,NCI-H1651,0.171
2,NCI-H1666,0.665
3,NCI-H1703,0.557
4,NCI-H1734,0.61
5,NCI-H1755,0.938
6,NCI-H1792,0.566
7,NCI-H1793,1.29
8,NCI-H1915,0.251
9,NCI-H1944,0.435
10,NCI-H1975,0.856
11,NCI-H1993,0.939
12,NCI-H2009,0.725
13,NCI-H2023,0.422
14,NCI-H2085,0.802
15,NCI-H2087,0.68
16,NCI-H2126,0.961
17,NCI-H2170,0.577
18,NCI-H2228,0.826
19,NCI-H2342,0.395
20,NCI-H2347,0.574
21,NCI-H2405,0.899
22,NCI-H3122,0.745

# Same assay, conditions: first compound 1 µM
row,Cell Line,relative viability
1,201T,0.835
2,A549,0.377
3,A-427,0.704
4,ABC-1,0.835
5,BEN,1.25
6,CAL-12T,0.73
7,COR-L23,0.363
8,COR-L 105,0.541
9,Calu-6,0.594
10,ChaGo-K-1,0.428
11,EBC-1,0.737
12,EKVX,0.866
13,EPLC-272H,0.769
14,H3255,0.558
15,HARA,0.636
16,HCC-15,0.846
17,HCC-44,0.986
18,HCC-78,0.87
19,HCC-366,0.389
20,HCC-827,0.463
21,HOP-62,0.458
22,IA-LM,0.789
23,LC-2-ad,0.701
24,LCLC-97TM1,0.388
25,LCLC-103H,0.815
26,LK-2,0.635

row,Cell Line,relative viability
1,LOU-NH91,0.925
2,LU99A,0.26
3,LXF-289,1.01
4,NCI-H23,0.335
5,NCI-H322M,0.836
6,NCI-H358,0.627
7,NCI-H441,0.697
8,NCI-H460,0.521
9,NCI-H520,0.363
10,NCI-H522,0.639
11,NCI-H596,0.728
12,NCI-H647,0.647
13,NCI-H650,0.405
14,NCI-H661,0.796
15,NCI-H727,0.656
16,NCI-H838,0.852
17,NCI-H1299,1.03
18,NCI-H1355,0.74
19,NCI-H1395,0.519
20,NCI-H1437,0.611
21,NCI-H1648,0.714
22,NCI-H1650,0.946
23,NCI-H1651,0.193
24,NCI-H1666,0.769
25,NCI-H1703,0.524
26,NCI-H1734,0.654
